The values below come from patent US9926281B2 (priority 2014, dated 2018).

In one assay the target is rnADAMTS-5 (1-564-6H) (Rattus norvegicus, UniProt Q6TY19). The conditions noted are these: read-out: Rat ADAMTS-5 potency IC50.
Another assay deals with human ADAMTS-5 (Homo sapiens (Human), UniProt Q9UNA0). The following applies: read-out: hADAMTS-5 potency IC50.
A further assay deals with human TACE (Homo sapiens (Human), UniProt P78536). The following applies: read-out: TACE potency IC50.
A further assay concerns the target human MMP13 (Homo sapiens (Human), UniProt P45452). The conditions noted are these: read-out: hMMP-13 potency IC50.

Sequence of human TACE (P78536 whole entry, looked up, change not shown): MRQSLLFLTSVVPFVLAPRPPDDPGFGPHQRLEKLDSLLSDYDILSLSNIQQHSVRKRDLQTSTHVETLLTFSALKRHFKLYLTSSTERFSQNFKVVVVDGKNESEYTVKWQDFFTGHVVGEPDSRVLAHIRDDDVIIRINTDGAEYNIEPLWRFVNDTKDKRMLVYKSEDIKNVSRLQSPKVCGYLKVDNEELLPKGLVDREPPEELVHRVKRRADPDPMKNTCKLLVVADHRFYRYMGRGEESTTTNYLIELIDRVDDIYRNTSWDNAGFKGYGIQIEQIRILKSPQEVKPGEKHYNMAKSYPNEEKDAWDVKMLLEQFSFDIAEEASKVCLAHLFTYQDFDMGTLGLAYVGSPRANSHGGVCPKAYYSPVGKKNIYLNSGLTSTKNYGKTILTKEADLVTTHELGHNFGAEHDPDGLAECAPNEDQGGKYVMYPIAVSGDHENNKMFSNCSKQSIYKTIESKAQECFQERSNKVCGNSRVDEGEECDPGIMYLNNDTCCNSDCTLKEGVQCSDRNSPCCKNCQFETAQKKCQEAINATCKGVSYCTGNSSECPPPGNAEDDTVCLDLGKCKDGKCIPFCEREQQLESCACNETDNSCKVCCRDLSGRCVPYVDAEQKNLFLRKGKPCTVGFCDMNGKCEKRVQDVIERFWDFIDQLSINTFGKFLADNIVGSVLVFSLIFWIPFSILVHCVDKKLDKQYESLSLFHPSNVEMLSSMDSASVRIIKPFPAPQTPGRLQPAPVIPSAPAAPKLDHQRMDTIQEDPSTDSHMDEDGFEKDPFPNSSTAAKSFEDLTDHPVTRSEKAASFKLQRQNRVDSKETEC
Sequence of human ADAMTS-5 (Q9UNA0 262-930): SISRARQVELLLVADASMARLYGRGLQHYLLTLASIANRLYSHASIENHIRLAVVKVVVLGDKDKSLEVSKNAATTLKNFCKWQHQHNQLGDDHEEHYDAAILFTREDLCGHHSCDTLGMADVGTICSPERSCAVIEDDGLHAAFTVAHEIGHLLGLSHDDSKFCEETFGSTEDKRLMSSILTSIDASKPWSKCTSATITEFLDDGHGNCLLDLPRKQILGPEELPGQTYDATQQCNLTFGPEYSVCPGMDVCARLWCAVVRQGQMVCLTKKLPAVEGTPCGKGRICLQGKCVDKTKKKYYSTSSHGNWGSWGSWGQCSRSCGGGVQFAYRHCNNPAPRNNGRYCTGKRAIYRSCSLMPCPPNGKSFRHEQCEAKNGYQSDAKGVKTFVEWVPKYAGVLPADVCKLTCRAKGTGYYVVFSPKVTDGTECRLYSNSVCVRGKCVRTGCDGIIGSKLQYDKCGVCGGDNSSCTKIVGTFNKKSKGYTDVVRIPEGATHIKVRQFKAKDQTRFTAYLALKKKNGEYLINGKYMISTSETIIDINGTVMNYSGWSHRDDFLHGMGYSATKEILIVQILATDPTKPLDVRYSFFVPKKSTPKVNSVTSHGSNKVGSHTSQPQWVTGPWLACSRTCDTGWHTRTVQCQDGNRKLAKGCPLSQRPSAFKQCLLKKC
Protocol for human MMP13: Human MMP13 is preactivated by incubated the enzyme in the same buffer complemented with 1 mM freshly prepared p-Aminophenylmercuric acetate (AMPA) for 1 hour at 37° C.

As for `O=C1NC(=O)C(CCC(=O)N2CCN(c3ccc(Cl)cc3)CC2)(c2ccccc2)N1` (stereo not shown) [compound 5, 5-[3-[4-(4-chlorophenyl)piperazin-1-yl]-3-oxo-propyl]-5-phenyl-imidazolidine-2,4-dione], the results for the IC50 at rnADAMTS-5 (1-564-6H), at human ADAMTS-5 and at human TACE were 0.101 µM, 0.078 µM and greater than 3.33 µM, respectively.

In the case of `O=C1NC(=O)C(CCC(=O)N2CCN(c3ccc4ccccc4n3)CC2)(c2ccccc2)N1` (stereo not shown) [compound 15, 5-[3-oxo-3-[4-(2-quinolyl)piperazin-1-yl]propyl]-5-phenyl-imidazolidine-2,4-dione], the IC50 on rnADAMTS-5 (1-564-6H) and at human ADAMTS-5 was greater than 4 µM each time.

For `Cc1cccc(C)c1N1CCN(C(=O)CCC2(c3ccccc3)NC(=O)NC2=O)CC1` (stereo not shown) [compound 22, 5-[3-[4-(2,6-dimethylphenyl)piperazin-1-yl]-3-oxo-propyl]-5-phenyl-imidazolidine-2,4-dione], the IC50 is 3.9 µM at rnADAMTS-5 (1-564-6H) and greater than 3.79 µM at human ADAMTS-5.

Take `Cc1cc(N2CCN(C(=O)CCC3(c4ccccc4)NC(=O)NC3=O)CC2)ccc1[N+](=O)[O-]` (stereo not shown) [compound 23, 5-[3-[4-(3-methyl-4-nitro-phenyl)piperazin-1-yl]-3-oxo-propyl]-5-phenyl-imidazolidine-2,4-dione]: the IC50 at rnADAMTS-5 (1-564-6H) came to 0.158 µM; at human ADAMTS-5, 0.157 µM.

Take `Cc1ccc(Cl)cc1N1CCN(C(=O)CCC2(c3ccccc3)NC(=O)NC2=O)CC1` (stereo not shown) [compound 24, 5-[3-[4-(5-chloro-2-methyl-phenyl)piperazin-1-yl]-3-oxo-propyl]-5-phenyl-imidazolidine-2,4-dione]: the IC50 on rnADAMTS-5 (1-564-6H) is 0.132 µM; on human ADAMTS-5, 0.093 µM; at human TACE, 0.298 µM.

Regarding `Cc1ccc(Cl)cc1N1CCN(C(=O)CCC2(C(C)C)NC(=O)NC2=O)CC1` (stereo not shown) [compound 33, 5-[3-[4-(5-chloro-2-methyl-phenyl)piperazin-1-yl]-3-oxo-propyl]-5-isopropyl-imidazolidine-2,4-dione], the IC50 at rnADAMTS-5 (1-564-6H) was 0.178 µM; on human ADAMTS-5, 0.134 µM; at human TACE it was 0.429 µM.

On to `Cc1ccc(Cl)cc1N1CCN(C(=O)CCC2(c3cccnc3)NC(=O)NC2=O)CC1` (stereo not shown) [compound 46, 5-[3-[4-(5-chloro-2-methyl-phenyl)piperazin-1-yl]-3-oxo-propyl]-5-(3-pyridyl)imidazolidine-2,4-dione], for which the results for the IC50 at rnADAMTS-5 (1-564-6H), at human ADAMTS-5 and on human TACE were 0.042 µM, 0.035 µM and 0.137 µM, respectively.

In the case of `CC1(CCC(=O)N2CCN(c3ccc(Cl)c(F)c3)CC2)NC(=O)NC1=O` (stereo not shown) [compound 49, 5-[3-[4-(4-chloro-3-fluoro-phenyl)piperazin-1-yl]-3-oxo-propyl]-5-methyl-imidazolidine-2,4-dione], the IC50 at rnADAMTS-5 (1-564-6H) was 0.141 µM; at human ADAMTS-5, 0.127 µM; at human TACE, greater than 20 µM.

For `O=C1NC(=O)C(CCC(=O)N2CCN(c3cccc(Cl)c3)CC2)(c2cccnc2)N1` (stereo not shown) [compound 56, 5-[3-[4-(3-chlorophenyl)piperazin-1-yl]-3-oxo-propyl]-5-(3-pyridyl)imidazolidine-2,4-dione], the IC50 at rnADAMTS-5 (1-564-6H) worked out at 0.072 µM; on human ADAMTS-5, 0.038 µM; on human TACE, 3.19 µM.

For `O=C1NC(=O)C(CCC(=O)N2CCN(c3ccccc3)CC2)(c2cccnc2)N1` (stereo not shown) [compound 68, 5-[3-oxo-3-(4-phenylpiperazin-1-yl)propyl]-5-(3-pyridyl)imidazolidine-2,4-dione], the figures for the IC50 on rnADAMTS-5 (1-564-6H) and on human ADAMTS-5 were 0.2 µM and 0.169 µM, respectively.

Consider `Cc1cccc(N2CCN(C(=O)CCC3(c4cccnc4)NC(=O)NC3=O)CC2)c1C` (stereo not shown) [compound 69, 5-[3-[4-(2,3-dimethylphenyl)piperazin-1-yl]-3-oxo-propyl]-5-(3-pyridyl)imidazolidine-2,4-dione], for which the IC50 on rnADAMTS-5 (1-564-6H) was found to be 0.185 µM; at human ADAMTS-5, 0.178 µM.

Turning to `Cc1ccc(Cl)cc1N1CCN(C(=O)CCC2(C3CCC3)NC(=O)NC2=O)CC1` (stereo not shown) [compound 71, 5-[3-[4-(5-chloro-2-methyl-phenyl)piperazin-1-yl]-3-oxo-propyl]-5-cyclobutyl-imidazolidine-2,4-dione], the IC50 at rnADAMTS-5 (1-564-6H) worked out at 0.198 µM; on human ADAMTS-5, 0.2 µM.

In the case of `O=C1NC(=O)C(CCC(=O)N2CCN(c3cccc(Cl)c3)CC2)(C2CCCCC2)N1` (stereo not shown) [compound 72, 5-[3-[4-(3-chlorophenyl)piperazin-1-yl]-3-oxo-propyl]-5-cyclohexyl-imidazolidine-2,4-dione], the IC50 was 0.282 µM at rnADAMTS-5 (1-564-6H) and 0.264 µM at human ADAMTS-5.

As to `Cc1ccc(C2(CCC(=O)N3CCN(c4cc(Cl)ccc4C)CC3)NC(=O)NC2=O)cc1` (stereo not shown) [compound 77, 5-[3-[4-(5-chloro-2-methyl-phenyl)piperazin-1-yl]-3-oxo-propyl]-5-(p-tolyl)imidazolidine-2,4-dione], the IC50 at rnADAMTS-5 (1-564-6H) is 0.169 µM; on human ADAMTS-5, 0.107 µM.

Take `Cc1ccccc1N1CCN(C(=O)CCC2(c3ccc(OCCN(C)C)cc3)NC(=O)NC2=O)CC1` (stereo not shown) [compound 81, 5-[4-(2-dimethylaminoethyloxy)phenyl]-5-[3-[4-(o-toyl)piperazin-1-yl]-3-oxo-propyl]imidazolidine-2,4-dione]: the figures for the IC50 at rnADAMTS-5 (1-564-6H) and at human ADAMTS-5 were 0.827 µM and 0.681 µM, respectively.

Turning to `Cc1ccccc1N1CCN(C(=O)CCC2(c3ccc(CN(C)C)cc3)NC(=O)NC2=O)CC1` (stereo not shown) [compound 82, 5-[4-(dimethylaminomethyl)phenyl]-5-[3-[4-(o-toly)piperazin-1-yl]-3-oxo-propyl]imidazolidine-2,4-dione], the IC50 was determined as 2.09 µM at rnADAMTS-5 (1-564-6H) and 1.74 µM at human ADAMTS-5.

As for `CC1(CCC(=O)N2CCN(c3cncc(F)c3)CC2)NC(=O)NC1=O` (stereo not shown) [compound 84, 5-[3-[4-(5-fluoro-3-pyridyl)piperazin-1-yl]-3-oxo-propyl]-5-methyl-imidazolidine-2,4-dione], the IC50 came out at 0.637 µM at rnADAMTS-5 (1-564-6H) and 0.815 µM on human ADAMTS-5.

Turning to `Cc1cccc(N2CCN(C(=O)CCC3(c4ccccn4)NC(=O)NC3=O)CC2)c1C` (stereo not shown) [compound 101, 5-[3-[4-(2,3-dimethylphenyl)piperazin-1-yl]-3-oxo-propyl]-5-(2-pyridyl)imidazolidine-2,4-dione], the values for the IC50 at rnADAMTS-5 (1-564-6H) and on human ADAMTS-5 were 0.165 µM and 0.154 µM, respectively.

Turning to `Cc1ccc(Cl)cc1N1CCN(C(=O)CCC2(C(C)(C)C)NC(=O)NC2=O)CC1` (stereo not shown) [compound 108, 5-tert-butyl-5-[3-[4-(5-chloro-2-methyl-phenyl)piperazin-1-yl]-3-oxo-propyl]imidazolidine-2,4-dione], the IC50 on rnADAMTS-5 (1-564-6H) is 0.41 µM; at human ADAMTS-5, 0.32 µM.

As to `Cc1ccc(Cl)cc1N1CCN(C(=O)CCC2(C3CCCC3)NC(=O)NC2=O)CC1` (stereo not shown) [compound 110, 5-[3-[4-(5-chloro-2-methyl-phenyl)piperazin-1-yl]-3-oxo-propyl]-5-cyclopentyl-imidazolidine-2,4-dione], the IC50 at rnADAMTS-5 (1-564-6H) stood at 0.299 µM; on human ADAMTS-5, 0.297 µM.

For `CC1CN(C(=O)CCC2(c3cccnc3)NC(=O)NC2=O)CCN1c1ccc(Cl)cc1` (stereo not shown) [compound 126, 5-[3-[4-(4-chlorophenyl)-3-methyl-piperazin-1-yl]-3-oxo-propyl]-5-(3-pyridyl)imidazolidine-2,4-dione], the IC50 was 0.106 µM on human ADAMTS-5, greater than 4 µM at human TACE and greater than 4 µM at human MMP13.

Regarding `C[C@@H]1CN(C(=O)CCC2(C3CC3)NC(=O)NC2=O)CCN1c1ccccc1` (stereo partly drawn) [compound 128, 5-cyclopropyl-5-[3-[(3R)-3-methyl-4-phenyl-piperazin-1-yl]-3-oxo-propyl]imidazolidine-2,4-dione], the IC50 at human ADAMTS-5 is 1.17 µM; on human TACE it was greater than 20 µM; on human MMP13 it was greater than 20 µM.

`Cc1ccc(F)cc1N1CCN(C(=O)CCC2(C3CC3)NC(=O)NC2=O)CC1C` (stereo not shown) [compound 129, 5-cyclopropyl-5-[3-[4-(5-fluoro-2-methyl-phenyl)-3-methyl-piperazin-1-yl]-3-oxo-propyl]imidazolidine-2,4-dione]: the values for the IC50 at human ADAMTS-5, on human TACE and at human MMP13 were 0.15 µM, greater than 4 µM and greater than 20 µM, respectively.

On to `CC1CN(C(=O)CCC2(C3CC3)NC(=O)NC2=O)CCN1c1cc(Cl)cc(Cl)c1` (stereo not shown) [compound 130, 5-cyclopropyl-5-[3-[4-(3,5-dichlorophenyl)-3-methyl-piperazin-1-yl]-3-oxo-propyl]imidazolidine-2,4-dione], for which the IC50 is 0.126 µM at human ADAMTS-5, greater than 4 µM at human TACE and greater than 20 µM on human MMP13.

On to `COc1ccc(Cl)cc1C1(CCC(=O)N2CCN(c3cccc(Cl)c3)CC2)NC(=O)NC1=O` (stereo not shown) [compound 132, 5-(5-chloro-2-methoxy-phenyl)-5-[3-[4-(3-chlorophenyl)piperazin-1-yl]-3-oxo-propyl]imidazolidine-2,4-dione], for which the half-maximal inhibitory concentration (IC50) on human ADAMTS-5 was found to be 0.037 µM; at human TACE, 0.348 µM; at human MMP13, 3.29 µM.

For `COc1ccc(Cl)cc1C1(CCC(=O)N2CCN(c3cc(Cl)ccc3C)CC2)NC(=O)NC1=O` (stereo not shown) [compound 133, 5-(5-chloro-2-methoxy-phenyl)-5-[3-[4-(5-chloro-2-methyl-phenyl)piperazin-1-yl]-3-oxo-propyl]imidazolidine-2,4-dione], the IC50 on human ADAMTS-5 is 0.108 µM; at human TACE, 0.195 µM; on human MMP13 it was greater than 20 µM.

Take `C[C@@H]1CN(C(=O)CCC2(c3cccnc3)NC(=O)NC2=O)CCN1c1ccccc1` (stereo partly drawn) [compound 134, 5-[3-[(3R)-3-methyl-4-phenyl-piperazin-1-yl]-3-oxo-propyl]-5-(3-pyridyl)imidazolidine-2,4-dione]: the IC50 at human ADAMTS-5 was 1.87 µM; on human TACE, greater than 20 µM; on human MMP13, greater than 20 µM.

For `Cc1c(Cl)cc(Cl)cc1N1CCN(C(=O)CCC2(C)NC(=O)NC2=O)CC1` (stereo not shown) [compound 139, 5-[3-[4-(3,5-dichloro-2-methyl-phenyl)piperazin-1-yl]-3-oxo-propyl]-5-methyl-imidazolidine-2,4-dione], the IC50 at human ADAMTS-5 was 0.231 µM; at human TACE, 1.32 µM; at human MMP13 it was greater than 20 µM.

Broadly, the IC50 is the concentration that gives 50% inhibition.
